Data on 23 compounds can be found in PMC9608490, “Design, Synthesis, Crystal Structure, In Vitro and In Silico Evaluation of New N′-Benzylidene-4-tert-butylbenzohydrazide Derivatives as Potent Urease Inhibitors” (Molecules, 2022).

Usually IC50 stands for the concentration that inhibits the measured activity by half. Read a high IC50 as weaker potency.

SMILES strings stand for the structures.

Sequence of Jack bean urease (P07374 whole entry, looked up): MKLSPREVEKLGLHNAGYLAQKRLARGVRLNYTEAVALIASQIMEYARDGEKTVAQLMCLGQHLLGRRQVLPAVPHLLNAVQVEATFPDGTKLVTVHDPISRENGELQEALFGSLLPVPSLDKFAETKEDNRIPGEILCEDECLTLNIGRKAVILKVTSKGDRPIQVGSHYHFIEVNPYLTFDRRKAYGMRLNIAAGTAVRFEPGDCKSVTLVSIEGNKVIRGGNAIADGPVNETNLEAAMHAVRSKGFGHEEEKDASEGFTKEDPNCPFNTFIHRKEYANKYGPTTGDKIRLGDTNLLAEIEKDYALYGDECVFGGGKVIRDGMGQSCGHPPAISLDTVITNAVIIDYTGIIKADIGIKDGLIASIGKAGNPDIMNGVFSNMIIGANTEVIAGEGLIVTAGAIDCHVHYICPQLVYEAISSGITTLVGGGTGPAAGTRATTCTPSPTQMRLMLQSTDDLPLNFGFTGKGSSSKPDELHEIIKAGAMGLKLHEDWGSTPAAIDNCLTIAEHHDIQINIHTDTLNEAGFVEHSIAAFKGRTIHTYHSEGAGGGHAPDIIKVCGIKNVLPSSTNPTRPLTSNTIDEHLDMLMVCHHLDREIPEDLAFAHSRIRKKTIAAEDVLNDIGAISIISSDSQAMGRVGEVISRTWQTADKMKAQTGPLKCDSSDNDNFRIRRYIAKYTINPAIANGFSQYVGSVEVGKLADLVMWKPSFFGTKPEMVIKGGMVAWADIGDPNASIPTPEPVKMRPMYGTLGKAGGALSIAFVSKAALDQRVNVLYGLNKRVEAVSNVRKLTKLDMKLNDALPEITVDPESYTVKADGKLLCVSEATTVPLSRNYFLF

The experiment has as its target Jack bean urease (Canavalia ensiformis, UniProt P07374). The experiment is described as follows: In vitro urease inhibition assay. Type of experiment: biochemical. As for the experimental part: The measurement of urease inhibitory activity was carried out according to the literature method. The assay mixture containing 75 μL of Jack bean urease and 75 μL of tested compounds with various concentrations (dissolved in DMSO) was pre-incubated for 15 min on a 96-well assay plate. Acetohydroxamic acid was used as a reference. Then 75 μL of phosphate buffer at pH 6.8 containing phenol red (0.18 mmol·L^−1) and urea (400 mmol·L^−1) were added and incubated at room temperature. The reaction time required for enough ammonium carbonate to form to raise the pH phosphate buffer from 6.8 to 7.7 was measured by a microplate reader (560 nm), with the end-point being determined by the color change of the phenol-red indicator.
Turning to `COc1cc(C=NNC(=O)c2ccc(C(C)(C)C)cc2)ccc1F` [Compound 4, 4-(Tert-butyl)-N′-(4-fluoro-3-methoxybenzylidene)benzohydrazide], inhibition was half-maximal at 88.8 ± 7.71 µM (IC50).

`COc1cccc(/C=N/NC(=O)c2ccc(C(C)(C)C)cc2)c1O` [Compound 5, 4-(t-But)-N′-(2-Hydroxy-3-methoxybenzylidene)benzohydrazide] came in with an IC50 of 56.6 ± 3.18 µM.

In turn, `CC(C)(C)c1ccc(C(=O)NN=Cc2c3ccccc3cc3ccccc23)cc1` [Compound 6, N′-(Anthracen-9-ylmethylene)-4-(tert-butyl)benzohydrazide] displayed an IC50 of 13.3 ± 0.58 µM.

In turn, `COc1ccc(Br)cc1C=NNC(=O)c1ccc(C(C)(C)C)cc1` [Compound 7, N′-(5-Bromo-2-methoxybenzylidene)-4-(t-But)benzohydrazide] had an IC50 of 64.5 ± 3.97 µM. This IC50 is about 4.8-fold higher than that of the compound before.

`CC(C)(C)c1ccc(C(=O)NN=Cc2ccc(O)c(O)c2)cc1` [Compound 8, N′-(3,4-Dihydroxybenzylidene)-4-tert-butylbenzohydrazide] gave an IC50 of 80 ± 7.43 µM. The IC50 values of the last two compounds are within 1.5-fold of each other.

The compound `COc1ccc(C=NNC(=O)c2ccc(C(C)(C)C)cc2)c(OC)c1OC` [Compound 9, N′-(2,3,4-Trimethoxybenzylidene)-4-tert-butylbenzohydrazide] displayed an IC50 of 63.5 ± 3.97 µM.

On to `CC(C)(C)c1ccc(C(=O)NN=Cc2cc([N+](=O)[O-])ccc2Cl)cc1` [Compound 10, 4-(Tert-butyl)-N′-(2-chloro-5-nitrobenzylidene)benzohydrazide], for which the midpoint of inhibition, the IC50, lay at 63.5 ± 3.97 µM.

Regarding `CCOc1ccc(C=NNC(=O)c2ccc(C(C)(C)C)cc2)c(OC)c1` [Compound 11, 4-(Tert-butyl)-N′-(4-ethoxy-2-methoxybenzylidene)benzohydrazide], the midpoint of inhibition, the IC50, lay at 63.5 ± 2.97 µM.

In turn, `CC(C)(C)c1ccc(C(=O)NN=Cc2cccc(O)c2)cc1` [Compound 12, 4-(Tert-butyl)-N′-(3-hydroxybenzylidene)benzohydrazide] came in with an IC50 of 39.6 ± 11.5 µM.

Compound `COc1cc(C=NNC(=O)c2ccc(C(C)(C)C)cc2)cc(OC)c1OC` [Compound 13, 4-(Tert-butyl)-N′-(3,4,5-trimethoxybenzylidene)benzohydrazide] displayed an IC50 of 80.9 ± 7.43 µM. Against the preceding compound, the IC50 is about 2-fold higher.

`CN(C)c1ccc(C=NNC(=O)c2ccc(C(C)(C)C)cc2)cc1` [Compound 14, 4-(Tert-butyl)-N′-(4-(dimethylamino)benzylidene)benzohydrazide]: the IC50 came to 81.2 ± 7.4 µM.

In turn, `CC(C)(C)c1ccc(C(=O)NN=Cc2ccc(Cl)cc2Cl)cc1` [Compound 15, 4-(Tert-butyl)-N′-(2,4-dichlorobenzylidene)benzohydrazide] registered an IC50 of 82.2 ± 7.43 µM.

Turning to `CC(C)(C)c1ccc(C(=O)NN=Cc2cc(C(C)(C)C)c(O)c(C(C)(C)C)c2)cc1` [Compound 16, 4-(Tert-butyl)-N′-(3,5-di-tert-butyl-4-hydroxybenzylidene)benzohydrazide], the IC50 came out at 79 ± 7.53 µM.

`CC(C)(C)c1ccc(C(=O)NN=Cc2cc(Cl)cc(Cl)c2O)cc1` [Compound 17, N′-(3,5-Dichloro-2-hydroxybenzylidene)-4-tert-butylbenzohydrazide] showed a 50% inhibitory concentration (IC50) of 27.5 ± 1.65 µM. This IC50 lies about 2.9-fold lower than the previous one.

In the case of `CC(C)(C)c1ccc(C(=O)NN=Cc2ccc([N+](=O)[O-])cc2)cc1` [Compound 18, N′-(4-Nitrobenzylidene)-4-tert-butylbenzohydrazide], the IC50 was determined as 66.1 ± 1.79 µM.

`COc1cccc(OC)c1C=NNC(=O)c1ccc(C(C)(C)C)cc1` [Compound 19, 4-(Tert-butyl)-N′-(2,6-dimethoxybenzylidene)benzohydrazide] showed an IC50 of 67.5 ± 4.16 µM.

As to `CC(C)(C)c1ccc(C(=O)N/N=C/c2ccc(O)cc2)cc1` [Compound 20, 4-(t-But)-N′-(4-Hydroxybenzylidene)benzohydrazide], the IC50 was 51.4 ± 11.5 µM.

On to `COc1cc(OC)c(C=NNC(=O)c2ccc(C(C)(C)C)cc2)c(OC)c1` [Compound 21, N′-(2,4,6-Trimethoxybenzylidene)-4-tert-butylbenzohydrazide], for which the IC50 was determined as 71.3 ± 2.47 µM.

Take `CC(C)(C)c1ccc(C(=O)N/N=C/c2ccc(Cl)c(O)c2Cl)cc1` [Compound 22]: 38.6 ± 11.5 µM corresponded to half-maximal inhibition (IC50).

For the compound `COc1cc(C=NNC(=O)c2ccc(C(C)(C)C)cc2)ccc1O` [Compound 23], the IC50 stood at 252 ± 6.82 µM.

As for `CC(C)(C)c1ccc(C(=O)N/N=C/c2ccccc2O)cc1` [Compound 24, 4-(t-But)-N′-(2-Hydroxybenzylidene)benzohydrazide], 37.5 ± 12.5 µM corresponded to half-maximal inhibition (IC50).

Compound `COc1ccc(/C=N/NC(=O)c2ccc(C(C)(C)C)cc2)cc1OC` [Compound 25, 4-(t-But)-N′-(3,4-Dimethoxybenzylidene)benzohydrazide] registered an IC50 of 13.4 ± 0.33 µM.

`CC(C)(C)c1ccc(C(=O)N/N=C/c2cc(C(C)(C)C)cc(C(C)(C)C)c2O)cc1` [Compound 26, 4-(t-But)-N′-(3,5-Di-tert-butyl-2-hydroxybenzylidene)benzohydrazide]: the IC50 was 49.5 ± 12.7 µM.
